Results on nine compounds are retold here after patent publication US11098055B2, “Ester ACC inhibitors and uses thereof” (Gilead Apollo, LLC, priority 2015, dated 2021).

Test [1] concerns the target fACC2 (UniProt Q00955). Description: In vitro ACC2 inhibition assay (ADP-Glo), fungal ACC2. Format: biochemical. The procedure: An exemplary procedure for the in vitro ACC inhibition assay, which can be used to determine the inhibitory action of compounds of the invention toward either human (hACC2) or fungal (fACC2) ACC2, follows. The ADP-Glo™ Kinase Assay kit from Promega was used. The ADP-Glo™ Kinase Assay is a luminescent ADP detection assay to measure enzymatic activity by quantifying the amount of ADP produced during an enzyme reaction. The assay is performed in two steps; first, after the enzyme reaction, an equal volume of ADP-Glo™ Reagent is added to terminate the reaction and deplete the remaining ATP. Second, the Kinase Detection Reagent is added to simultaneously convert ADP to ATP and allow the newly synthesized ATP to be measured using a luciferase/luciferin reaction. Luminescence can be correlated to ADP concentrations by using an ATP-to-ADP conversion curve. The detailed procedure is as follows. 50 μL of the compound being tested (600 μM in DMSO) was added to a 384-well dilution plate. The compound was diluted 1:3 in succession in DMSO for each row for 11 wells. 0.5 μL ACC2 working solution was added to 384-well white Optiplate assay plate. 0.5 μL diluted compound solution in each column from step 2 was added to assay plate, each row containing 2 replicates. For the last 2 rows, 0.5 μL negative control (DMSO) was added in one row and 0.5 μL positive control (compound I-97) in the other. The plates were incubated at room temperature for 15 minutes. 5 μL substrate working solution was added to each well to initiate reaction. Final ACC2 reaction concentrations consist of: 5 nM ACC2, 20 μM ATP, 20 μM acetyl-CoA, 12 mM NaHCO3, 0.01% Brij35, 2 mM DTT, 5% DMSO, test compound concentrations: 30 μM, 10 μM, 3.33 μM, 1.11 μM, 0.37 μM, 0.123 μM, 0.0411 μM, 0.0137 μM, 0.00457 μM, 0.00152 μM, and 0.00051 μM. Plates were incubated at room temperature for 60 minutes. 10 μL ADP glo reagent was added. Plates were incubated at room temperature for 40 minutes. 20 μL kinase detection reagent was added. Plates were incubated at room temperature for 40 minutes, and then read on a Perkin Elmer EnVision 2104 plate reader for luminescence as Relative Light Units (RLU).
Data for each concentration, as well as the positive and negative controls, were averaged, and the standard deviation calculated. Percent inhibition was calculated by the formula: 100×(average negative control−compound)/(average negative control−average positive control). The IC50 for each compound was calculated by fitting the data with a non-linear regression equation: Y=Bottom+(Top−Bottom)/(1+10^((Log IC50−X)*HillSlope)), where X is the log of compound concentration and Y is percent inhibition.
(In general: ADP-Glo turns the ADP formed in a reaction into a luminescent signal.)

In test [2] the test system is C. krusei ATCC 6258. Nature of the test: Anti-Fungal (Candida) Activity Assay, broth microtiter MIC. Format: cell-based, Candida krusei. Conditions: Pichia kudriavzevii, ATCC6258, 48 h, 3 replicates, MIC read at 48 h. The method, then: Compounds of the present invention were evaluated in an Anti-Fungal Activity Assay. An exemplary procedure for the assay, which measures the susceptibility of various Candida species to anti-fungal compounds, follows. Compounds to be tested (including fluconazole and amphotericin B) were dissolved in DMSO to obtain a solution having a concentration of 1 mg/mL. These stock solutions were sterile filtered using a 0.22 um nylon syringe filter, then diluted in sterile water to achieve a final concentration of 128 μg/mL.
All species were grown from frozen stock by directly plating on to freshly prepared Sabouraud Dextrose agar (BD, Difco) and incubated overnight in ambient air at 35° C. for 24 h. A direct suspension was prepared in RPMI 1640+MOPS (Lonza, Biowhittaker) by taking individual colonies from the overnight cultures using sterile swabs soaked in sterile saline. The concentration of the suspension was determined using pre-determined standard curves. These suspensions were then diluted down to 5×10^3 CFU/mL to achieve a final concentration of 2.5×10^3 CFU/mL once added to the microtiter plate as per CLSI guidelines (M27-A3, Vol. 28 No. 14).
Broth microtiter MIC challenge plates were prepared following CLSI guidelines (M27-A3, Vol. 28 No. 14). The original CLSI guidelines focused on reading Candida MICs after 48 h of incubation. As reading after only 24 h offers a clear advantage of patient care, QC limits are being established for all drugs at 24 h. That being said there are no known interpretive breakpoints for amphotericin B at 24 h and the current fluconazole interpretive breakpoints are based on a 48 h reading. The MIC for the test compounds were recorded at 48 h. All MIC determinations were achieved by visually comparing the growth found in the antibiotic challenged wells to that of the growth control.

Test [3] relates to Botrtyis cinerea (Bc). Nature of the test: Growth inhibition assay of fungal pathogens. The format is cell-based. To be noted: 48 h, read-out: Concentration at 90% Inhibition Bc. The method, then:
Compounds of the present invention were evaluated in a growth inhibition assay to determine the ability to control the growth of fungal pathogens, such as Botrtyis cinerea (Bc), Collectotrichum graminicola (Cg), Diplodia maydis (Dm), Fusarium moniliforme (Fm), Fusarium virguhforme (Fv), Phytophthora capsici (Pc), Rhizoctonia solani (Rs), and Septoria tritici (St). Compounds to be tested were dissolved in DMSO at 2.5 mg/ml to produce compound stock solutions (“stocks”). Stocks were diluted with DMSO by a five-fold dilution in a 96-well stock plate, and two sets of final concentrations of 50, 10, and 2 ppm or 2, 0.4, and 0.08 ppm were obtained in vitro. A set of positive controls was also prepared, with various concentrations of Soraphen (2, 0.4, and 0.08 ppm), Metalaxyl (1.1, 0.22, and 0.04 ppm), and Metconazole (2, 0.4, and 0.08 ppm or 0.2, 0.04, and 0.008 ppm) after the five-fold dilutions. Negative controls on each plate included 2% DMSO, water, and a blank (media+2% DMSO). Fungal spores were isolated from previously sub-cultured plates of Botrtyis cinerea (Bc), Collectotrichum graminicola (Cg), Diplodia maydis (Dm), Fusarium moniliforme (Fm), Fusarium virguliforme (Fv), Phytophthora capsici (Pc), and Septoria tritici (St). The isolated spores were diluted to individual concentrations with a 17% V8 liquid media. For Rhizoctonia solani (Rs) and Pythium irregulare, 1.5 mm mycelial plugs were used in place of spores and ¼ Potato Dextrose Broth (PDB) was used for dilution. The spore concentrations and plug sizes were based on growth curves generated at 48 hours for each pathogen. In a second 96-well plate, the spores or mycelial plugs, media, diluted compound solutions, and controls were combined. Once the compound was added, a true final concentration of compound in each well was measured by an OD600 reading, which adjusted for any compound precipitation that might have occurred in the well. Plate readings were repeated at both 24 and 48 hours. The blank negative control was used as a background subtraction. Additional visual ratings were performed at both 24 and 48 hours for checking on precipitation and confirming efficacy. Visual and OD600 ratings of the compounds at 48 hours were compared to the 2% DMSO negative control, and the percent of pathogen growth inhibition was determined based on those values.

≈ marks a conversion by molar mass, not a printed value. Where two headings read alike, the source gives them in different places.

What is called IC50 is the point on the concentration scale where inhibition reaches its midpoint. What is called MIC is the smallest concentration in the dilution series that meets the test's criterion for growth inhibition.

Chain of fACC2 (Q00955 whole entry): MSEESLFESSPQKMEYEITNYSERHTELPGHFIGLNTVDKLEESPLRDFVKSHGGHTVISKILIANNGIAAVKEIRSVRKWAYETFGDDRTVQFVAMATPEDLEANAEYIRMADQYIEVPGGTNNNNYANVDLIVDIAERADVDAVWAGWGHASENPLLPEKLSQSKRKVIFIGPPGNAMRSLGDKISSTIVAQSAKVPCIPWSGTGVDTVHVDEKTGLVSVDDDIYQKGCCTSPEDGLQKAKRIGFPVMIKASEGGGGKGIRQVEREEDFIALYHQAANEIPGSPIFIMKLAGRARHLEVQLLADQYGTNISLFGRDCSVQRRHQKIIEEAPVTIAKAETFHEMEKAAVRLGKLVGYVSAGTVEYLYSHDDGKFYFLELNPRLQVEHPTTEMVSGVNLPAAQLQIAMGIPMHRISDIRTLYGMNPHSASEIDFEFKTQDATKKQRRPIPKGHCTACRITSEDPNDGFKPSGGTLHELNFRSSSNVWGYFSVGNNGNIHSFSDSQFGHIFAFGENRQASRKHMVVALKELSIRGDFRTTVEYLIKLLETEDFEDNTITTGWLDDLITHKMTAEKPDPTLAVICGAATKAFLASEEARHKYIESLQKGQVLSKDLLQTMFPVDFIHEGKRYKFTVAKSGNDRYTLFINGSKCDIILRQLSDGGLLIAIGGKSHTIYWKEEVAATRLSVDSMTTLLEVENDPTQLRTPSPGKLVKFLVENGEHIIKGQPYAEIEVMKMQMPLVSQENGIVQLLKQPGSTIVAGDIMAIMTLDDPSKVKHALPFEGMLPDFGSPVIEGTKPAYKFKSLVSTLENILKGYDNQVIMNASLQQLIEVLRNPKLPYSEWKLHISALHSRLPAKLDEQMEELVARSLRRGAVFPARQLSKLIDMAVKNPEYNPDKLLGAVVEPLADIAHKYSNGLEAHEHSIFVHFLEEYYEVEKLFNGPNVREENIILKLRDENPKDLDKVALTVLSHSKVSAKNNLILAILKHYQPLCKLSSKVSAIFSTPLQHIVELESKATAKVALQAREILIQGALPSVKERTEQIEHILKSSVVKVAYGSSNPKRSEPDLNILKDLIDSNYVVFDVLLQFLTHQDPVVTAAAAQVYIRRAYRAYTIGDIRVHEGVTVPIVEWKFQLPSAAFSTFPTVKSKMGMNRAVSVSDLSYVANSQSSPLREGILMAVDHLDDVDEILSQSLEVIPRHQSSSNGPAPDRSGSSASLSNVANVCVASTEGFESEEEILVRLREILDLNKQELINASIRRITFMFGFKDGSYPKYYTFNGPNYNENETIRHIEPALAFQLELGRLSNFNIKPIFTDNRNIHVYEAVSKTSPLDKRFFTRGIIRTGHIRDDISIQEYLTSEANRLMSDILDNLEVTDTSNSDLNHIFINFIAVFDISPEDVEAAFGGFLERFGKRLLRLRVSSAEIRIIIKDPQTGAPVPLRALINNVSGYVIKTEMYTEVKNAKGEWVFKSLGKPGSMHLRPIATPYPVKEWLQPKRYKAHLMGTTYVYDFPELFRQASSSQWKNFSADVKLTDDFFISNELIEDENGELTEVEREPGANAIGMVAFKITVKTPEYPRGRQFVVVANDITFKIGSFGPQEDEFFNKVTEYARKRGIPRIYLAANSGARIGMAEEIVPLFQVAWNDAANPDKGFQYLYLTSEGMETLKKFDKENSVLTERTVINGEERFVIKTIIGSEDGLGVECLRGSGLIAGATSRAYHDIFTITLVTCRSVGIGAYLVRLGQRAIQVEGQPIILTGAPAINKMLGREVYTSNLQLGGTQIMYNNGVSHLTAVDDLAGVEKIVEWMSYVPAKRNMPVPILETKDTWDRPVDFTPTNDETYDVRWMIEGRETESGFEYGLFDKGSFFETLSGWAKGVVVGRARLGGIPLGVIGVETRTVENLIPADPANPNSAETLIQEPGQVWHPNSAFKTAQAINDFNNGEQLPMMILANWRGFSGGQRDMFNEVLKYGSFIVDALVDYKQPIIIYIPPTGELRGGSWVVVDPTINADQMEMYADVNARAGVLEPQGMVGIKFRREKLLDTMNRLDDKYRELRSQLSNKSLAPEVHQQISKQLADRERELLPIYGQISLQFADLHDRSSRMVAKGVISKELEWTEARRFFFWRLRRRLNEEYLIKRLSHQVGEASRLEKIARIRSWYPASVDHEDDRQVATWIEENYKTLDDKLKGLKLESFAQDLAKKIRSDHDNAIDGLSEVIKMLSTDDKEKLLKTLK

As to `CCOC(=O)c1sc2c(c1C)c(=O)n(C(C)(C)C(=O)N1CCCC1)c(=O)n2C[C@H](OCCC#N)c1cc(F)ccc1OC` [Compound I-16, (R)-ethyl 1-(2-(2-cyanoethoxy)-2-(5-fluoro-2-methoxy-phenyl)ethyl)-5-methyl-3-(2-methyl-1-oxo-1-(pyrrolidin-1-yl)propan-2-yl)-2,4-dioxo-1,2,3,4-tetrahydrothieno[2,3-d]pyrimidine-6-carboxylate], the values for the IC50 in test [1] (Table 2a) and in test [1] (Table 2b (additional results)) were 0.6 to 3 nM and 0.3 to 3 nM, respectively. Moreover, the minimum inhibitory concentration (MIC) in test [2] (Table 3a) was over 4.1 µg/mL; in test [2] (Table 3b (additional results)), 2.1 to 4 µg/mL (≈ 3.42 to 6.51 µM). In addition, the IC90 in test [3] (Table 4a) and in test [3] (Table 4b) was 2 µg/mL (≈ 3.25 µM) in each case.

Consider `CCOC(=O)c1sc2c(c1C)c(=O)n(C(C)(C)C(=O)N1CCCCC1)c(=O)n2C[C@H](OC1CCOCC1)c1ccccc1OC` [Compound I-2, ethyl (R)-1-(2-(2-methoxyphenyl)-2-((tetrahydro-2H-pyran-4-yl)oxy)ethyl)-5-methyl-3-(2-methyl-1-oxo-1-(piperidin-1-yl)propan-2-yl)-2,4-dioxo-1,2,3,4-tetrahydrothieno[2,3-d]pyrimidine-6-carboxylate], for which the IC50 in test [1] (Table 2a) fell in the range of 0.6 to 3 nM; in test [1] (Table 2b (additional results)), 0.3 to 3 nM. The MIC in test [2] (Table 3a) and in test [2] (Table 3b (additional results)) was 0.25 to 1 µg/mL (≈ 0.39 to 1.56 µM) each time. Besides, the IC90 in test [3] (Table 4a) and in test [3] (Table 4b) was 0.4 µg/mL (≈ 0.623 µM) throughout.

For `CCNC(=O)[C@@H](C)n1c(=O)c2c(C)c(C(=O)OCC)sc2n(C[C@H](OCCC#N)c2cc(F)ccc2OC)c1=O` [Compound I-41, ethyl 1-((R)-2-(2-cyanoethoxy)-2-(5-fluoro-2-methoxy-phenyl)ethyl)-3-((R)-1-(ethylamino)-1-oxopropan-2-yl)-5-methyl-2,4-dioxo-1,2,3,4-tetrahydrothieno[2,3-d]pyrimidine-6-carboxylate], in test [1] (Table 2b (additional results)), the IC50 lay in the range of 0.3 to 3 nM. Also, the MIC in test [2] (Table 3b (additional results)) is 2.1 to 4 µg/mL (≈ 3.65 to 6.96 µM). For the same compound, the IC90 in test [3] (Table 4b) is 10 µg/mL (≈ 17.4 µM).

`CCOC(=O)c1sc2c(c1C)c(=O)n(C(C)(C)C(=O)NC(C)C)c(=O)n2C[C@H](OCC(C)(C)C#N)c1ccccc1OC` [Compound I-38, ethyl (R)-1-(2-(2-cyano-2-methylpropoxy)-2-(2-methoxyphenyl)ethyl)-3-(1-(isopropylamino)-2-methyl-1-oxopropan-2-yl)-5-methyl-2,4-dioxo-1,2,3,4-tetrahydrothieno[2,3-d]pyrimidine-6-carboxylate] yielded an IC50 in test [1] (Table 2b (additional results)) of 0.3 to 3 nM. The compound also displayed an MIC in test [2] (Table 3b (additional results)) of over 4.1 µg/mL. Besides, in test [3] (Table 4b), the IC90 was found to be 0.4 µg/mL (≈ 0.653 µM).

On to `CCOC(=O)c1sc2c(c1C)c(=O)n([C@@H](C)C(=O)NC(C)C)c(=O)n2C[C@H](O)c1cc(F)ccc1OC` [Compound I-44, ethyl 1-((R)-2-(5-fluoro-2-methoxyphenyl)-2-hydroxyethyl)-3-((S)-1-(isopropylamino)-1-oxopropan-2-yl)-5-methyl-2,4-dioxo-1,2,3,4-tetrahydrothieno[2,3-d]pyrimidine-6-carboxylate], for which the IC50 in test [1] (Table 2b (additional results)) was 10 to 40 nM. Moreover, the MIC in test [2] (Table 3b (additional results)) fell in the range of 2.1 to 4 µg/mL (≈ 3.92 to 7.47 µM). The IC90 in test [3] (Table 4b) stood at 10 µg/mL (≈ 18.7 µM).

For `CCOC(=O)c1sc2c(c1C)c(=O)n(C(C)(C)C(=O)NC(C)C)c(=O)n2C[C@H](OC1CCOCC1)c1ccccc1OC` [Compound I-8, (R)-ethyl 3-(1-(isopropylamino)-2-methyl-1-oxopropan-2-yl)-1-(2-(2-methoxyphenyl)-2-((tetrahydro-2H-pyran-4-yl)oxy)ethyl)-5-methyl-2,4-dioxo-1,2,3,4-tetrahydrothieno[2,3-d]pyrimidine-6-carboxylate], the half-inhibitory concentration (IC50) in test [1] (Table 2a) was 0.6 to 3 nM; in test [1] (Table 2b (additional results)), 0.3 to 3 nM. For the same compound, the MIC was in the range of 0.25 to 1 µg/mL (≈ 0.406 to 1.62 µM) in test [2] (Table 3a) and 2.1 to 4 µg/mL (≈ 3.41 to 6.5 µM) in test [2] (Table 3b (additional results)). Also, the IC90 in test [3] (Table 4a) and in test [3] (Table 4b) was 0.4 µg/mL (≈ 0.65 µM) in each case.

In test [1] (Table 2b (additional results)), `CCOC(=O)c1sc2c(c1C)c(=O)n(C(C)(C)C(=O)NC(C)C)c(=O)n2C[C@H](OCC#N)c1cc(F)ccc1OC` [Compound I-33, ethyl (R)-1-(2-(cyanomethoxy)-2-(5-fluoro-2-methoxy-phenyl)ethyl)-3-(1-(isopropylamino)-2-methyl-1-oxopropan-2-yl)-5-methyl-2,4-dioxo-1,2,3,4-tetrahydrothieno[2,3-d]pyrimidine-6-carboxylate] registered an IC50 of 0.3 to 3 nM. The compound also displayed a minimal inhibitory concentration (MIC) in test [2] (Table 3b (additional results)) of 2.1 to 4 µg/mL (≈ 3.57 to 6.8 µM). In test [3] (Table 4b), the IC90 came out at 0.4 µg/mL (≈ 0.68 µM).

With `CCOC(=O)c1sc2c(c1C)c(=O)n(C(C)(C)C(=O)NC(C)C)c(=O)n2C[C@H](OCCC#N)c1ccccc1OC` [Compound I-31, ethyl (R)-1-(2-(2-cyanoethoxy)-2-(2-methoxyphenyl)ethyl)-3-(1-(isopropylamino)-2-methyl-1-oxopropan-2-yl)-5-methyl-2,4-dioxo-1,2,3,4-tetrahydrothieno[2,3-d]pyrimidine-6-carboxylate], in test [1] (Table 2b (additional results)), the IC50 was in the range of 0.3 to 3 nM. This compound displayed a minimum inhibitory concentration (MIC) in test [2] (Table 3b (additional results)) of 0.25 to 1 µg/mL (≈ 0.428 to 1.71 µM). In addition, the IC90 in test [3] (Table 4b) was 0.4 µg/mL (≈ 0.684 µM).

In the case of `CCOC(=O)c1sc2c(c1C)c(=O)n(C(C)(C)C(=O)NC(C)C)c(=O)n2C[C@H](O)c1cc(F)ccc1OC` [Compound I-19, (R)-ethyl 1-(2-(5-fluoro-2-methoxyphenyl)-2-hydroxyethyl)-3-(1-(isopropylamino)-2-methyl-1-oxopropan-2-yl)-5-methyl-2,4-dioxo-1,2,3,4-tetrahydrothieno[2,3-d]pyrimidine-6-carboxylate], in test [2] (Table 3b (additional results)), the minimum inhibitory concentration (MIC) lay in the range of 0.25 to 1 µg/mL (≈ 0.455 to 1.82 µM). Moreover, the IC90 in test [3] (Table 4a) and in test [3] (Table 4b) was 0.4 µg/mL (≈ 0.728 µM) in each case.
